According to US9510598B2, “Nitrogen-containing heterocyclic compounds for plant disease control” (BAYER CROPSCIENCE AG, priority 2012, dated 2016):
Values joined by “and” are separate entries in the source; they are usually repeats but may differ in a detail not shown here. Equal values may be shown once. Read-outs that look alike come from different tables or passages of the source.

Key:
[1] = tested on: Sphaerotheca fuliginea; test: In vivo preventive test on Sphaerotheca fuliginea (powdery mildew on cucurbits); details: 500 ppm; gherkin plants sprayed 24 hours before contamination; grading 12 days after contamination vs control plants
In short: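 Preventive spray of gherkin plants at Z11 cotyledon stage, grown at 24° C; inoculation 24 hours later with Sphaerotheca fuliginea spores (100 000 spores per ml). Efficacy graded 12 days post-inoculation as % versus solvent-treated control plants.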

[2] = tested on: Botrytis cinerea; test: In vivo preventive test on Botrytis cinerea (grey mould); details: 500 ppm; gherkin plants sprayed 24 hours before contamination; grading 4-5 days after contamination vs control plants
In short: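 Gherkin plants ("Vert petit de Paris") sprayed with compound at Z11 cotyledon stage, then inoculated 24 h later with B. cinerea spores (50 000/ml) in PDB/fructose/NH4NO3/KH2PO4 nutrient solution. Incubated at 17 °C, 80% RH; % efficacy versus solvent-treated controls graded 4–5 days after contamination.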

[3] = format: physicochemical; details: for log P: method [a]: HPLC/LC-MS on reversed phase at pH 2.7, 0.1% formic acid in water / acetonitrile; for chromatographic logP: pH 2.7
[4] = tested on: Phytophthora infestans; format: in vivo; details: 500 ppm; tomato plants sprayed 24 hours before contamination; grading 5 days after contamination vs control plants
[5] = tested on: Septoria tritici; test: In vivo preventive test on Septoria tritici (leaf spot on wheat); details: 500 ppm; wheat plants sprayed 24 hours before contamination; grading 21 to 28 days after contamination vs control plants
In short: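 Scipion wheat at 1-leaf stage sprayed with compound, controls receiving acetone/tween/DMSO/water vehicle; 24 h later leaves inoculated with Septoria tritici spores (500 000 spores per ml). Efficacy (%) graded versus control plants 21 to 28 days after contamination.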

[6] = tested on: Peronospora parasitica; test: In vivo preventive test on Peronospora parasitica (crucifer downy mildew); details: 500 ppm; cabbage plants sprayed 24 hours before contamination; grading 5 days after contamination vs control plants
Method: Cabbage plants (Eminence variety) in starter cups, sown on a 50/50 peat soil-pozzolana substrate and grown at 18-20° C., are treated at the cotyledon stage by spraying with the aqueous suspension described above. Plants, used as controls, are treated with an aqueous solution not containing the active material. After 24 hours, the plants are contaminated by spraying them with an aqueous suspension of Peronospora parasitica spores (50.000 spores per ml). The spores are collected from infected plant. The contaminated cabbage plants are incubated for 5 days at 20° C., under a humid atmosphere. Grading is carried out 5 days after the contamination, in comparison with the control plants.

[7] = tested on: Puccinia recondita; test: In vivo preventive test on Puccinia recondita (brown rust on wheat); details: 500 ppm; wheat plants sprayed 24 hours before contamination; grading 10 days after contamination vs control plants
In short: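 Wheat (Scipion) grown at 22° C./20° C. (12 h each), sprayed with active ingredient at 1-leaf stage (10 cm); controls sprayed with acetone/tween/DMSO/water lacking active. Leaves inoculated 24 hours later with Puccinia recondita spore suspension (100 000 spores per ml).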

[8] = tested on: Uromyces appendiculatus; test: In vivo preventive test on Uromyces appendiculatus (bean rust); details: 500 ppm; bean plants sprayed 24 hours before contamination; grading 10 days after contamination vs control plants
Method: Bean plants (“Saxa” variety), sown in starter cups on a 50/50 peat soil-pozzolana substrate and grown at 24° C., are treated at the 2-leaf stage (9 cm height) by spraying with the active ingredient prepared as described above. Plants, used as controls, are treated with the mixture of acetone/tween/DMSO/water not containing the active material. After 24 hours, the plants are contaminated by spraying the leaves with an aqueous suspension of Uromyces appendiculatus spores (150 000 spores per ml).

[9] = tested on: Pyrenophora teres; test: In vivo preventive test on Pyrenophora teres (net blotch on barley); details: 500 ppm; barley plants sprayed 24 hours before contamination; grading 12 days after contamination vs control plants
Method: Barley plants (“Plaisant” variety), sown in starter cups on a 50/50 peat soil-pozzolana substrate and grown at 22° C. (12 h)/20° C. (12 h), are treated at the 1-leaf stage (10 cm height) by spraying with the active ingredient prepared as described above. Plants, used as controls, are treated with the mixture of acetone/tween/DMSO/water not containing the active material. After 24 hours, the plants are contaminated by spraying the leaves with an aqueous suspension of Pyrenophora teres spores (12 000 spores per ml). The spores are collected from a 12-day-old culture. […] Grading (% of efficacy) is carried out 12 days after the contamination, in comparison with the control plants.

[10] = tested on: Alternaria brassicae; test: In vivo preventive test on Alternaria brassicae (leaf spot on radish); details: 500 ppm; radish plants sprayed 24 hours before contamination; grading 5 days after contamination vs control plants
In short: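 Radish plants ('Pernod Clair', grown at 17 °C) were spray-treated at the 2-leaf stage; controls received solvent mix only. After 24 h, leaves were sprayed with 50 000 spores/ml from 15-day-old cultures, and % efficacy was graded 5 days post-inoculation against controls.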

[11] = physchem; details: pH 2.7
Method: Measurement of log P values was performed according EEC directive 79/831 Annex V.A8 by HPLC (High Performance Liquid Chromatography) on reversed phase columns with the following methods: ^[a]

[12] = linear gradient 10% to 95% acetonitrile
[13] = gradient 10% to 95% acetonitrile

| SMILES | % of efficacy (protection) [1] | % of efficacy (protection) [2] [%] | log P [3, 12] | % of efficacy (protection) [4] [%] | % of efficacy (protection) [5] | Grading, protection [6] [%] | % of efficacy (protection) [7] [%] | % of efficacy (protection) [8] [%] | % of efficacy (protection) [9] [%] | % of efficacy (protection) [10] [%] | chromatographic logP [3] | chromatographic logP [11] | log P [3, 13] |
| --- | --- | --- | --- | --- | --- | --- | --- | --- | --- | --- | --- | --- | --- |
| CCCn1cc(CNC(=O)C2(C)CC(c3ccc4ncc(Br)cc4c3)=NO2)c(C)n1 (stereo not shown) [compound 49] | 98% | 100 | 2.64^[a] | 100 | 79% and 97% | 100 | – | – | – | – | – | – | – |
| CC(C)NC(=O)C1(C)CC(c2ccc3ncc(Br)cc3c2)=NO1 (stereo not shown) [compound 31] | 100% | 93 | 2.75^[a] | – | 100% | 90 | – | – | – | – | – | – | – |
| C#Cc1cnc2ccc(C3=NOC(C)(C(=O)NCc4cn(CC)nc4C)C3)cc2c1 (stereo not shown) [compound 43] | 100% | 100 | 2.14^[a] | 100 | – | 94 | 75 | 97 | – | – | – | – | – |
| CCOCCCNC(=O)C1(C(F)(F)F)CC(c2ccc3ncc(Br)cc3c2)=NO1 (stereo not shown) [compound 105] | 100% | – | 3.57^[a] | – | 75% | – | 71 | 86 | 79 | 70 | – | – | – |
| CCn1cc(CNC(=O)C2(C(F)(F)F)CC(c3ccc4ncc(Br)cc4c3)=NO2)c(C)n1 (stereo not shown) [compound 35] | – | – | 3.02^[a] | – | 97% | 90 | – | – | – | – | – | – | – |
| CCn1cc(CNC(=O)C2(OC)CC(c3ccc4ncc(Br)cc4c3)=NO2)c(C)n1 (stereo not shown) [compound 47] | – | 95 | 2.31^[a] | – | 100% | 100 | – | – | 75 | – | – | – | – |
| CC1(C(=O)O)CC(c2ccc3ncc(Cl)cc3c2)=NO1 (stereo not shown) [Compound No. II-01, 3-(3-chloroquinolin-6-yl)-5-methyl-4,5-dihydro-1,2-oxazole-5-carboxylic acid] | – | – | – | – | – | – | – | – | – | – | 1.87 | 1.87 | – |
| COC1(C(=O)NC(C)C)CC(c2ccc3ncc(Br)cc3c2)=NO1 (stereo not shown) [compound 48] | 100% | 100 | 2.64^[a] | 100 | 100% | 98 | 89 | 96 | 93 | 97 | – | – | – |
| CC1(C(=O)O)CC(c2ccc3ncc(I)cc3c2)=NO1 (stereo not shown) [Compound No. II-09] | – | – | – | – | – | – | – | – | – | – | 1.93 | 2.05 | – |
| CCn1cc(CNC(=O)C2(C)CC(c3ccc4ncc(Br)cc4c3)=NO2)c(C)n1 (stereo not shown) [compound 34] | 94% and 98% | 100 | 2.39^[a] | 99 | – | 98 | – | – | – | – | – | – | – |
| CCn1cc(CNC(=O)C2(C)CC(c3ccc4ncc(C(F)(F)F)cc4c3)=NO2)c(C)n1 (racemic) [compound 383] | – | – | – | – | 100% | – | 94 | 99 | 86 | 83 | – | – | 2.45[a] |
| CCn1cc(CNC(=O)C2(C)CC(c3ccc4ncc(I)cc4c3)=NO2)c(C)n1 (stereo not shown) [compound 39] | 100% | 100 | 2.49^[a] | 100 | – | 100 | – | – | – | – | – | – | – |
| CC(C)NC(=O)C1(C)CC(c2ccc3ncc(C(F)(F)F)cc3c2)=NO1 (racemic) [compound 384] | – | – | – | – | 100% | – | 89 | 79 | 86 | 83 | – | – | 2.90[a] |
| COC(=O)C1(C)CC(c2ccc3ncc(Cl)cc3c2)=NO1 (stereo not shown) [II-23, methyl 3-(3-chloroquinolin-6-yl)-5-methyl-4,5-dihydro-1,2-oxazole-5-carboxylate] | – | – | – | – | – | – | – | – | – | – | 2.58 | 2.58 | – |
| CC(C)NC(=O)C1(C(F)(F)F)CC(c2ccc3ncc(Br)cc3c2)=NO1 (stereo not shown) [compound 36] | – | – | 3.52^[a] | – | 100% | 98 | 79 | – | 79 | – | – | – | – |
